Results from US8747830B2, “Wound repair composition and method” (Queensland University of Technology, priority 2007, dated 2014).

System: MMP's (particularly MMP-9) in chronic wound fluid
Conditions: inhibitor 2 mM, 37° C., 24 hours; % of untreated control remaining
Procedure: Collagenase sensitivity was identified as clear bands against a dark background in zymograms and could be quantitated by densitometric analysis. […] Lanes 1-6 are chronic wound fluid samples from six different patients with 500 ng of total protein loaded per sample. […] Electrophoresis was performed at 4° C. under Laemmli conditions. […] After incubation the gels were stained appropriately and protease activity was visualised as clear (unstained) bands.

C=C(C)C(=O)NCCCC(O)(P(=O)(O)O)P(=O)(O)O [alendronate-methacrylate conjugate]
type I collagen degradation relative to that seen in the untreated control (densitometry, FIG. 4): 30%-40%
